Experimental findings from patent publication US7323481B2, “Thiazolidinediones alone or in combination with other therapeutic agents for inhibiting or reducing tumour growth” (Hoffmann-La Roche Inc., priority 2001, dated 2008) are described below.

In assay [1] the test system is human cancer cells (breast cancer, colon cancer, prostate cancer). The assay is described as follows: Inhibition of cell proliferation in human cancer cells. The class given is cell-based. To be noted: human cancer cells of various tissue origins, e.g. breast, colon and prostate cancer.
The subject of assay [2] is CX-1 human colon carcinoma cells. The assay is described as follows: CX-1 human colon carcinoma xenograft in SCID beige mice: tumor volume and pulmonal micrometastases. In kind it is in vivo. The conditions noted are these: for Inhibition relative to vehicle group (tumor volume): day 45; for Mean tumor volume: measured on day 45; for Number of metastases: lung micrometastases per group, histology after autopsy; for Effect on metastatic load: human xenograft models. The protocol: (§1) Female SCID beige mice were inoculated subcutaneously with 1×10^6 CX-1 human colon carcinoma cells. For 42 days 10 animals per group were orally treated with troglitazone, BM 13.1258 or BM 15.2054 (suspension in 0.5% methylcellulose). The development of tumor volume (measured in mm^3) was determined on day 45. Furthermore, following autopsy the lungs were histologically inspected for micrometastases. Inhibition of tumor growth and inhibition of number of pulmonal metastases were calculated as 100 minus tumor volume or number of metastases of the test group divided by that of the vehicle group expressed as a percentage. PPAR gamma stimulating activity of the compounds alone and in combination with the RXR specific agonist 9-cis retinoic acid were determined in accordance with a known method (Furnsinn, C., et al., Br. J. Pharmacol. 128 (1999) 1141-1148). The relative activation of PPAR-mediated gene expression is given as x-fold stimulation compared to DMSO-treated cells (activation=1).
For orientation: In xenograft studies the graft and the host belong to different species.

The target of another assay is T1, PPAR gamma (Homo sapiens, UniProt P37231).
T1 sequence (P37231 1-505): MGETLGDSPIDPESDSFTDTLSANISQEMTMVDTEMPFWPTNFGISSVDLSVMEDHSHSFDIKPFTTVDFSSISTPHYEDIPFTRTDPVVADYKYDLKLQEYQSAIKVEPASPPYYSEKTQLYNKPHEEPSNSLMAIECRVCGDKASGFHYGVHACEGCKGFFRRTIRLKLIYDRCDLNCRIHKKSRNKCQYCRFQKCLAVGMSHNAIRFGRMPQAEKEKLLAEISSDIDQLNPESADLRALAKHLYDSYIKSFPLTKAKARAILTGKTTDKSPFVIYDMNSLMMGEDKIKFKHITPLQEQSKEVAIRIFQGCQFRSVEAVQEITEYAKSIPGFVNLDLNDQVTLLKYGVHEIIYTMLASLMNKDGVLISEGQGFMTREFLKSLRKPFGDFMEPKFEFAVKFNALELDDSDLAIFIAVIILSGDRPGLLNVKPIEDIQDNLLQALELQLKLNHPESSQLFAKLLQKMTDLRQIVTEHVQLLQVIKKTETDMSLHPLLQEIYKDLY
In words: PPAR gamma stimulating activity (PPAR-mediated gene expression), alone and with 9-cis retinoic acid. The class given is cell-based. To be noted: DMSO-treated cells = 1. The protocol:
as §1

Setting [3] is: thiazolidinedione 10^−6 M in combination with 9-cis RA 10^−6 M.
[4] abbreviates: thiazolidinedione 10^−6 M, no 9-cis RA.
Where [5] appears, read: thiazolidinedione 10^−7 M in combination with 9-cis RA 10^−6 M.
Setting [6] is: thiazolidinedione 10^−7 M, no 9-cis RA.

Molecules are shown by their SMILES.

As for `Cc1oc(-c2cccs2)nc1CCOc1ccc(CC2SC(=O)NC2=O)c2sccc12` (stereo not drawn) [BM 15.2054, 5-{4-[2-(5-Methyl-2-(thien-2-yl)oxazol-4-yl)-ethoxy]-benzo[b]thiophen-7-ylmethyl}-thiazolidine-2,4-dione], the “Inhibition of cell proliferation” value in assay [1] is given as “inhibit cell proliferation”. Besides, the “Inhibition relative to vehicle group (number of metastases)” value in assay [2] (10 mg/kg oral for 42 days) turned out to be 34%; in assay [2] (50 mg/kg oral for 42 days) it was 32%. For the same compound, the “Inhibition relative to vehicle group (tumor volume)” value in assay [2] (10 mg/kg oral for 42 days) was determined as 30%; in assay [2] (50 mg/kg oral for 42 days), 28%. Besides, the Mean tumor volume is reported as 702 mm^3 in assay [2] (10 mg/kg oral for 42 days) and 719 mm^3 in assay [2] (50 mg/kg oral for 42 days). The Number of metastases in assay [2] (10 mg/kg oral for 42 days) stood at 216; in assay [2] (50 mg/kg oral for 42 days), 223. Besides, in assay [2] (Table 2), the “Number of lung metastases compared to the vehicle group” value was “significantly (p<0.05) reduced”. In addition, in assay [2], the “Effect on metastatic load” value is “reduce the metastatic load”. Besides, the “Relative activation of PPAR-mediated gene expression” value (“Relative activation” for short) amounted to 18.5 x-fold on PPAR gamma (setting [3]), 3.5 x-fold at PPAR gamma (setting [4]), 15.6 x-fold at PPAR gamma (setting [5]) and 4.3 x-fold on PPAR gamma (setting [6]).
Regarding `CC1=C(/C=C/C(C)=C\C=C\C(C)=C\C(=O)O)C(C)(C)CCC1` [9-cis RA, 9-cis retinoic acid, reference compound], the “Relative activation” value at PPAR gamma (9-cis RA 10^−6 M, no thiazolidinedione) amounted to 4.1 x-fold.
Take `Cc1c(C)c2c(c(C)c1O)CCC(C)(COc1ccc(CC3SC(=O)NC3=O)cc1)O2` (stereo not drawn) [Troglitazone, troglitazone, reference compound]: in assay [2] (200 mg/kg oral for 42 days), the “Inhibition relative to vehicle group (number of metastases)” value is reported as −8%, the “Inhibition relative to vehicle group (tumor volume)” value was 20%, the Mean tumor volume worked out at 804 mm^3 and the Number of metastases was 352.
`Cc1oc(-c2ccccc2)nc1CCOc1ccc(CC2SC(=O)NC2=O)c2sccc12` (stereo not drawn) [BM 13.1258, 5-{4-[2-(5-Methyl-2-phenyloxazol-4-yl) -ethoxy]-benzo[b]thiophen-7-ylmethyl}-thiazolidine-2,4-dione]: the “Inhibition of cell proliferation” value in assay [1] was “inhibit cell proliferation”. Also, in assay [2] (50 mg/kg oral for 42 days), the “Inhibition relative to vehicle group (tumor volume)” value is 40%. The Mean tumor volume in assay [2] (50 mg/kg oral for 42 days) is on record as 604 mm^3. For the same compound, in assay [2] (SCID beige mice, Table 1), the “Anti-tumor effect compared with troglitazone” value was “superior to that of troglitazone”. For the same compound, the “Reduction of size of colon carcinoma” value in assay [2] (SCID beige mice, Table 1) was “effective in reducing the size of colon carcinoma”. For the same compound, in assay [2], the “Effect on metastatic load” value is “reduce the metastatic load”. In addition, the “Relative activation” value at PPAR gamma (setting [3]) amounted to 28.0 x-fold; on PPAR gamma (setting [4]), 4.0 x-fold; at PPAR gamma (setting [5]), 24.4 x-fold; on PPAR gamma (setting [6]), 3.7 x-fold.
